The text below walks through data of article PMC10303200 (ACS Central Science, 2023).

Several values for one entry are separate records, joined by “and”; a condition that tells them apart may be missing. Equal entries are not always repeated. Where two headings read alike, the source gives them in different places.

For assay [1], the target named is T1, GAL-7 (Homo sapiens, UniProt P47929).
T1 construct: gene LGALS7; homodimer (monomer MW 14.94 kDa)
Briefly: COIN-nMS, global fit over several glycan concentrations, 200 mM ammonium acetate, pH 6.9, 25 °C. The assay is classed as binding. The note with it: SD; read-out: Kd (COIN-nMS, global fit), Table S2.

Assay [2] addresses T1, GAL-7. Briefly: Direct native ESI-MS at known concentrations with single glycans, 200 mM ammonium acetate, pH 6.9, 25 °C. The assay is classed as binding. The note with it: SD; read-out: Kd (nMS), Table S2.
The target in assay [3] is T1, GAL-7. Briefly: COIN-nMS (slow mixing in nanoESI emitter, fit of eq 12) at one glycan concentration, 200 mM ammonium acetate, pH 6.9, 25 °C. The assay is classed as binding. As to conditions: SD; read-out: Kd (COIN-nMS, individual experiments), Table S2.
Assay [4] deals with T2, fCD22 (fragment of human Siglec 2) (Homo sapiens, UniProt P20273).
T2 construct: A fragment of human Siglec 2 (fCD22, residue 1–332, MW 37.4 kDa); made in house; host or cells: wild-type CHO cells
T2 sequence (P20273 20-332): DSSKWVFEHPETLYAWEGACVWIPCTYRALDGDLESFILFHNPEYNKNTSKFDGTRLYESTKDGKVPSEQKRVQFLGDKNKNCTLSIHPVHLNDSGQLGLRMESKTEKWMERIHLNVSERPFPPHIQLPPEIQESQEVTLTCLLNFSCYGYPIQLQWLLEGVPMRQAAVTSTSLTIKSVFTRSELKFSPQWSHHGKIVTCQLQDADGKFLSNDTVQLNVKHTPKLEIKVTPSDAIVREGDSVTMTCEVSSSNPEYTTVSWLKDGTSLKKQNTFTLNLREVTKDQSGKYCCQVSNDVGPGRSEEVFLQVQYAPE
Briefly: direct nMS affinity measurement. The class given is binding. As to conditions: individual glycan; ammonium acetate 200 mM, pH 6.9.

The target in assay [5] is T2, fCD22 (fragment of human Siglec 2). Briefly: COIN-nMS affinity measurement. The class given is binding.
The target is the same in assay [6]. As to conditions: literature value; ref S3; cited from earlier work.
Assay [7] addresses T3, GAL-7 homodimer (Homo sapiens, UniProt P47929).
T3 construct: made in house
Briefly: direct nMS affinity measurement. The assay is classed as binding. Also on record: key: NB: No binding detected. The note with it: glycans present as a mixture (G2, G5-G13); pH 6.9.

In assay [8] the target is T3, GAL-7 homodimer. Briefly: COIN-nMS affinity measurement. The class given is binding. As to conditions: glycans present as a mixture (G2, G5-G13); average of eight measurements; pH 6.9. Also on record: key: NB: No binding detected.
Assay [9] deals with T4, GAL-3C (Homo sapiens, UniProt P17931). Briefly: direct nMS (ESI-MS) affinity measurement at known concentrations. The class given is binding. Also noted: human Galectin-3 (GAL-3C, residues 107–250, molecular weight (MW) 16 327 Da); key: NB: No binding detected. As to conditions: glycans present as a mixture (G2, G5-G13); pH 6.9.
T4 sequence (P17931 107-250): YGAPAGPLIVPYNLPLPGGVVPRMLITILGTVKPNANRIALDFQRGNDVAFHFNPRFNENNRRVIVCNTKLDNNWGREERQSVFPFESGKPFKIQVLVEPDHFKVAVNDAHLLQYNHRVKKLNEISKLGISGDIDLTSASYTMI
The target of assay [10] is T4, GAL-3C. Briefly: COIN-nMS affinity measurement. The class given is binding. As to conditions: glycans present as a mixture (G2, G5-G13); average of eight measurements; pH 6.9. Also noted: human Galectin-3 (GAL-3C, residues 107–250, molecular weight (MW) 16 327 Da); key: NB: No binding detected.
Assay [11] addresses T5, MAA.
T5 construct: commercial lectin mixture
Briefly: Isothermal titration calorimetry, 200 mM ammonium acetate, pH 6.8-6.9, 25 °C. The assay is classed as binding. As to conditions: SD; read-out: Kd (Literature), Table S6, determined by ITC.

Assay [12] addresses T5, MAA. Briefly: COIN-CaR-nMS (collisional release of bound glycan, fit of eq 13) with single purified glycans, 200 mM ammonium acetate, pH 6.9. The class given is binding. As to conditions: SD; read-out: Kd (COIN-CaR-nMS), Table S6.
The target of the next assay is Sig7-Fc (Homo sapiens, UniProt Q9Y286). Briefly: COIN-CaR-nMS with purified oligosaccharides listed beside the library glycans, 200 mM ammonium acetate, pH 6.9. The assay is classed as binding. Also noted: gene SIGLEC7; residues 1-345, human IgG1 Fc fusion and C-terminal His6, from CHO cells, MW 150 kDa. The note with it: SD; read-out: Kd, purified oligosaccharides in Tables S12, S13, S18, S19.
Sig7-Fc, sequence (Q9Y286 1-345): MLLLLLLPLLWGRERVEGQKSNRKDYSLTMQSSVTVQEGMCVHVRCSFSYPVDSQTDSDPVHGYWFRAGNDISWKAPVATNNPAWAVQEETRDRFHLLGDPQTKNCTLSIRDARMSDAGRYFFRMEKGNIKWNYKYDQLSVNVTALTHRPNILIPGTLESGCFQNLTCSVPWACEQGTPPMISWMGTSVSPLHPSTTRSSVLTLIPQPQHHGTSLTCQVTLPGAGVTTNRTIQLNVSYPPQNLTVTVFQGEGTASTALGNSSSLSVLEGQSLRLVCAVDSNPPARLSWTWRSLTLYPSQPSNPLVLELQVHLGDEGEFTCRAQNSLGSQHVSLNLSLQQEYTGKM

In assay [13] the target is T4, GAL-3C. Briefly: Literature reference values quoted in the results table, conditions not restated. The class given is binding. Also noted: gene LGALS3; C-terminal carbohydrate recognition domain fragment, residues 107-250. As to conditions: SD; read-out: Kd (Literature), Table S2; cited from earlier work.
The target in assay [14] is T4, GAL-3C. Briefly: COIN-nMS with a mixture of ten glycans (G2, G5-G13), 200 mM ammonium acetate, pH 6.9. The class given is binding. Also noted: gene LGALS3; C-terminal carbohydrate recognition domain fragment, residues 107-250. The note with it: SD, n = 8; read-out: Kd (COIN-nMS), Table S3.
For assay [15], the target named is T4, GAL-3C. Briefly: COIN-nMS (slow mixing in nanoESI emitter, fit of eq 12) at one glycan concentration, 200 mM ammonium acetate, pH 6.9, 25 °C. The class given is binding. Also noted: gene LGALS3; C-terminal carbohydrate recognition domain fragment, residues 107-250. The note with it: SD; read-out: Kd (COIN-nMS, individual experiments), Table S2.
Assay [16] has as its target T4, GAL-3C. Briefly: Direct native ESI-MS at known concentrations with single glycans, 200 mM ammonium acetate, pH 6.9, 25 °C. The assay is classed as binding. Also noted: gene LGALS3; C-terminal carbohydrate recognition domain fragment, residues 107-250. The note with it: SD; read-out: Kd (nMS), Table S2.
Assay [17] deals with T4, GAL-3C. Briefly: Direct native ESI-MS with a mixture of ten glycans (G2, G5-G13), 200 mM ammonium acetate, pH 6.9. Also on record: gene LGALS3; C-terminal carbohydrate recognition domain fragment, residues 107-250. As to conditions: SD, n = 8; read-out: Kd (nMS), Table S3. The class given is binding.
Assay [18] addresses T6, DC-SIGN CRD (Homo sapiens, UniProt Q9NNX6).
T6 sequence (Q9NNX6 250-404): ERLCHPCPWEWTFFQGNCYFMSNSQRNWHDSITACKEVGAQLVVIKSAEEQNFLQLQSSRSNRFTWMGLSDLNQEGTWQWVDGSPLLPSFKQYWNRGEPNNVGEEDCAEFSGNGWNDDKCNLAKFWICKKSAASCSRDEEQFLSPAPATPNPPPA
Briefly: Direct native ESI-MS (submicron emitters) with a mixture of ten glycans (G2, G5, G10, G14-G20), 200 mM ammonium acetate with 2.5 mM calcium salt, pH 7.4. The assay is classed as binding. Also on record: gene CD209; carbohydrate recognition domain, residues 250-404, MW 17 794 Da. As to conditions: SD, n = 6; read-out: Kd (nMS), Table S5.

In assay [19] the target is T6, DC-SIGN CRD. Briefly: COIN-nMS (submicron emitters) with a mixture of ten glycans (G2, G5, G10, G14-G20), 200 mM ammonium acetate with 2.5 mM calcium salt, pH 7.4. The assay is classed as binding. Also on record: gene CD209; carbohydrate recognition domain, residues 250-404, MW 17 794 Da. The note with it: SD, n = 6; read-out: Kd (COIN-nMS), Table S5.
Assay [20] has as its target T1, GAL-7. Briefly: Direct native ESI-MS of the GAL-7 homodimer with a mixture of ten glycans (G2, G5-G13), 200 mM ammonium acetate, pH 6.9. The assay is classed as binding. As to conditions: SD, n = 8; read-out: Kd (nMS), Table S4.
Assay [21] deals with T1, GAL-7. Briefly: COIN-nMS of the GAL-7 homodimer with a mixture of ten glycans (G2, G5-G13), 200 mM ammonium acetate, pH 6.9. The note with it: SD, n = 8; read-out: Kd (COIN-nMS), Table S4. The assay is classed as binding.
The target in assay [22] is T4, GAL-3C. Briefly: COIN-nMS, global fit over several glycan concentrations, 200 mM ammonium acetate, pH 6.9, 25 °C. The assay is classed as binding. Also noted: gene LGALS3; C-terminal carbohydrate recognition domain fragment, residues 107-250. As to conditions: SD; read-out: Kd (COIN-nMS, global fit), Table S2.
Assay [23] concerns the target T5, MAA. Briefly: COIN-CaR-nMS with purified oligosaccharides listed beside the library glycans, 200 mM ammonium acetate, pH 6.9. The note with it: SD; read-out: Kd, purified oligosaccharides in Tables S12, S13, S18, S19. The class given is binding.

T3 sequence (P47929 whole entry): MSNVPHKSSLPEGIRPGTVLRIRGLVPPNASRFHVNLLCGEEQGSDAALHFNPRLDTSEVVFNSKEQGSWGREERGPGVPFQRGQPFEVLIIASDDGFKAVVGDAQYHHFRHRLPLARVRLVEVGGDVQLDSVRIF
T1 sequence (P47929 whole entry): as above

`CC(=O)N[C@H]1[C@H](O[C@H]2[C@@H](O)[C@@H](CO)O[C@@H](O[C@H]3[C@H](O[C@@H]4O[C@@H](C)[C@@H](O)[C@@H](O)[C@@H]4O)[C@@H](O)C(O)O[C@@H]3CO)[C@@H]2O)O[C@H](CO)[C@@H](O[C@@H]2O[C@H](CO)[C@H](O)[C@H](O)[C@H]2O)[C@@H]1O[C@@H]1O[C@@H](C)[C@@H](O)[C@@H](O)[C@@H]1O` (stereo partly drawn) [G3, Gal-(1→4)-[α-L-Fuc(1→3)]-β-D-GlcNAc-(1→3)-β-D-Gal(1→4)[α-L-Fuc(1→3)]-D-Glc]: the Kd on GAL-7 [1] was 521 µM; on GAL-7 [2], 518 µM; at GAL-7 [3], 524 µM and 507 µM and 537 µM.

As for `CC(=O)NC1C(O)OC(CO)C(OC2OC(CO)C(OC3OC(COC4OC(CO)C(O)C(O)C4OC4OC(CO)C(OC5OC(COC6(C(=O)O)CC(O)C(NC(C)=O)C(C(O)C(O)CO)O6)C(O)C(O)C5O)C(O)C4NC(C)=O)C(O)C(OC4OC(CO)C(O)C(O)C4OC4OC(CO)C(OC5OC(COC6(C(=O)O)CC(O)C(NC(C)=O)C(C(O)C(O)CO)O6)C(O)C(O)C5O)C(O)C4NC(C)=O)C3O)C(O)C2NC(C)=O)C1O` [Glycan G4, [α-D-Neu5Ac-(2→6)-β-D-Gal-(1→4)-β-D-GlcNAc-(1→2)-α-D-Man-(1→3)]-[α-D-Neu5Ac-(2→6)-β-D-Gal-(1→4)-β-D-GlcNAc-(1→2)-α-D-Man-(1→6)]-β-D-Man(1→4)-β-D-GlcNAc-(1→4)-D-GlcNAc], the Kd in assay [4] is 13.1 ± 0.6 µM; in assay [5] (global fit of data sets at 30, 50, 75 µM glycan, read-out: Kd (COIN-nMS, global fit)) it was 23.5 ± 1.4 µM; in assay [5] (glycan concentration 30 µM, pH 6.9, read-out: Kd (COIN-nMS, individual experiments)), 25.4 ± 2.2 µM; in assay [5] (glycan concentration 50 µM, pH 6.9, read-out: Kd (COIN-nMS, individual experiments)), 37.5 ± 0.5 µM; in assay [5] (glycan concentration 75 µM, pH 6.9, read-out: Kd (COIN-nMS, individual experiments)), 23.4 ± 0.7 µM; in [6], 13.1 ± 0.6 µM.

As for “β-D-Gal(1→3)-[α-L-Fuc(1→4)]-β-D-GlcNAc(1→3)-β-D-Gal(1→4)-[α-L-Fuc(1→3)]-β-D-Glc [Glycan G11]”, the “Kd (nMS)” value at GAL-7 homodimer [7] and on GAL-3C [9] was “NB” throughout. Further, the “Kd (COIN-nMS)” value was “NB and do not bind” on GAL-7 homodimer [8]; “NB and do not bind” on GAL-3C [10].

On to `CC(=O)N[C@H]1[C@H]([C@H](O)[C@H](O)CO)O[C@@](O[C@H]2[C@@H](O)[C@@H](CO)O[C@@H](O[C@H]3[C@H](O)[C@@H](O)C(O)O[C@@H]3CO)[C@@H]2O)(C(=O)O)C[C@@H]1O` (stereo partly drawn) [G22, 3SL, 3'-sialyllactose, α-D-Neu5Ac-(2→3)-β-D-Gal-(1→4)-D-Glc], for which the Kd on MAA [11] is 3.6 µM; at MAA [12], 3.5 µM; on Sig7-Fc, 277 µM.

Turning to `C[C@@H]1O[C@@H](O[C@H]2[C@H](O[C@H]3[C@H](O)[C@@H](O)C(O)O[C@@H]3CO)O[C@H](CO)[C@H](O)[C@@H]2O)[C@@H](O)[C@H](O)[C@@H]1O` (stereo partly drawn) [G2, α-L-Fuc-(1→2)-β-D-Gal-(1→4)-D-Glc (2'-fucosyllactose)], the dissociation constant (Kd) was 47.6 µM at GAL-3C [13]; 156 µM at GAL-3C [14]; 27 µM and 24.8 µM and 28 µM at GAL-3C [15]; 26.6 µM at GAL-3C [16]; 166 µM on GAL-3C [17]; 2100 µM at DC-SIGN CRD [18]. Moreover, the Kd on DC-SIGN CRD [19] came to 660 µM; at GAL-7 [20], 237 µM; at GAL-7 [21], 241 µM; on GAL-3C [22] it was 23.2 µM.

As to `CC(=O)N[C@H]1[C@H]([C@H](O)[C@H](O)CO)O[C@@](O[C@H]2[C@@H](O)[C@@H](CO)O[C@@H](O[C@H]3[C@H](O)[C@@H](NC(C)=O)C(O)O[C@@H]3CO)[C@@H]2O)(C(=O)O)C[C@@H]1O` (stereo partly drawn) [G25, 3SLN, α-D-Neu5Ac-(2→3)-β-D-Gal-(1→4)-D-GlcNAc], the Kd on MAA [23] came to 2.14 µM; on Sig7-Fc, 267 µM.
